Biological target: T1, EA-activated TRPC5 (Mus musculus, UniProt Q9QX29)
T1 construct: expressed in transfected cells; host or cells: HEK293-mTRPC5-YFP
T1 sequence (Q9QX29 1-975): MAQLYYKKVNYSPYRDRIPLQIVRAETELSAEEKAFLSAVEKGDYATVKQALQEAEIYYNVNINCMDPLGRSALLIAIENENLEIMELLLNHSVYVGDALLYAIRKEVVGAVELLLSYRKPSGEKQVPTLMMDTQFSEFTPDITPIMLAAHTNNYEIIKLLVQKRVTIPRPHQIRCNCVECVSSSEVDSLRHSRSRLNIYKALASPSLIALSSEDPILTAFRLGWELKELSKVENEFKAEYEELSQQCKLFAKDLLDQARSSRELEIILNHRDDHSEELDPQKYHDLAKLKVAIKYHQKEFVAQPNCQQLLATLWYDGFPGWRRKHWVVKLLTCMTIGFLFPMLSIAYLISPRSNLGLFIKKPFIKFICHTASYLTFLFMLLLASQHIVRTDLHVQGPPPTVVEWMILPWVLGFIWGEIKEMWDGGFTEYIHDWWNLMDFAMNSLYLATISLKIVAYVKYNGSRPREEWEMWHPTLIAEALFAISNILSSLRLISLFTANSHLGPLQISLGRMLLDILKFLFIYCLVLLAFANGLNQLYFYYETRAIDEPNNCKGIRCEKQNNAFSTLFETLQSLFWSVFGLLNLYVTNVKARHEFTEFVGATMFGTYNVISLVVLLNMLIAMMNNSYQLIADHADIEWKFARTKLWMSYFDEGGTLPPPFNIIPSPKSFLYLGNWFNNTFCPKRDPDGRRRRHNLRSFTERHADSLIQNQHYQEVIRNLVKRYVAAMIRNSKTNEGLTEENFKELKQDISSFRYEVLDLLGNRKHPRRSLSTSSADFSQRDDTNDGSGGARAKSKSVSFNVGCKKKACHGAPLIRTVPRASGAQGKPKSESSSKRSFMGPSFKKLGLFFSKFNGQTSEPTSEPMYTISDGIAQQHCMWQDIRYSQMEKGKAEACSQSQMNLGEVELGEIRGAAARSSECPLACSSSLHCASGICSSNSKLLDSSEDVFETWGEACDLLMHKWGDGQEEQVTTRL
Experiment: FLIPR Ca2+ assay, E isomers silencing EA-activated TRPC5 (HEK293-mTRPC5-YFP)
Format: cell-based
Source text: Müller, Niemeyer, et al., Schaefer & Thorn-Seshold 2025: Ideal Efficacy Photoswitching of TRPC4/5 in Tissue but it can justify why the affinity of the E/Z-isomers may be similar.
(2) The EC50 values are reported as the midpoints of unconstrained sigmoidal fits to the FLIPR data (Fig 1l and Supplementary Fig. 2): with different levels of channel activation / blocking and very different Hill slopes across different compounds, isomers, and the two channels. This argues that the midpoint values only capture one of the several important factors describing the […]
We believe that it is possible to derive indicative relative values for binding affinity comparing the E and Z isomers of the same compound using only the combination of FLIPR and ephys data as reported in this paper; this analysis is being developed in a separate paper (see also below).
Supplementary Table 1. Potencies on TRPC4/5 depicted as either simple agonistic potency (blue) or else inhibitory […]
. Z*-values refer to mostly-Z-isomer reached at PSS at 365 nm, E*-values refer to experiments that initially applied 100% E-isomer (thermally relaxed), though in both cases the Ca2+ imaging in FLIPR with Fluo4-AM uses 470 nm excitation, which may over time promote photoswitching towards a PSS that is intermediate between those of pure-365 nm and all-E; this is controlled for in the more reliable ephys measurements). (Table indices: a, data from ref7; b, data from ref2; c, data from ref3; d, data from ref8.) EC50 [nM] (for simple agonism or EA-competitive inhibition)
E-AzPico 90 (vs 30 nM EA) 67 (vs 30 nM EA) […]
orange: inhibitory effect ag.: agonistic effect
1.1.1 From always-active antagonists and agonists towards efficacy photoswitches […]
photoisomerising an azobenzene that is merged in at the C’4 position yielding the compounds […]
inhibitory effect for the E-isomers (Supplementary Table 1). Essentially, the effects of Pico145 and AM237 are latent within a single (two-state reversibly photoswitchable) molecule. This combination is what we call an efficacy switch (also see main text Fig. 1e-j).
1.1.2 Mechanistic test for efficacy photoswitching […]
deliver (Fig. 1-2) is a powerful support for an efficacy switch interpretation. To indirectly support this further, we also measured the effects of E-AzPico and E-AzHC against EA-activated TRPC4/5.
Both E-isomers bind to TRPC4/5 and inhibit EA-evoked currents with nanomolar potencies (Supplementary Fig. 2, Supplementary Table 2). This supports the hypothesis that E- […]
to be an EA-competitive binder5,9,10), so their efficacy as single agent photoswitches results from E/Z-competitive binding that is determined by their PSS. […]
Supplementary Table 2. […] (a Inhibitory effect measured against 30 nM EA; b Inhibitory effect measured against 50 nM EA). […]

IC50 (Inhibitory IC50 (versus 30 nM EA) TRPC5, E isomer, thermally relaxed, 30 nM EA): 67 nM
IC50 (Inhibitory IC50 (versus 50 nM EA) TRPC5, E isomer, 50 nM EA): 69 nM
SMILES: Cn1c(=O)n(CCCO)c(=O)c2c1nc(Oc1ccc(/N=N/c3ccccc3)c(OC(F)(F)F)c1)n2Cc1ccc(Cl)cc1 [E-AzPico]
